Data published in paper PMC5041986 (Oncotarget, 2016).

How the values were obtained:
Format in all cases: cell-based
RT-112 cells [1] = assay: MTT cell viability assay; settings: 72 h, mean
Procedure: (§1) Cells were seeded in 96-well plates and exposed to DMSO, or indicated compounds for 72 hours. Cell viability was assessed using the 3-(4,5-dimethylthiazol-2-yl)-2,5-diphenyltetrazolium bromide (MTT) assay as described previously [46]. Briefly, 100 μl of 0.5 mg/ml MTT were added to each well and incubated at 37°C for 1 hour. After that, 100 μl of extraction reagents (0.1 M sodium acetate buffer for suspension cells or DMSO for attached cells) were added to each well to lyse cells and absorbance at 550 nm was measured. Cell viability was expressed as the percentage of surviving cells in drug-treated versus DMSO-treated control cells (which was considered as 100% viability).

PLC/PRF/5 cells = assay: MTT cell viability assay; settings: PLC5/PRF/5, 5 μM, 72 h, mean
Procedure: as §1

Hep3B cells = assay: MTT cell viability assay; settings: 72 h, mean
Procedure: as §1

SNU-16 cells = assay: MTT cell viability assay; settings: SNU-16, 5 μM, 72 h, mean
Procedure: as §1

RT-112 cells [2] = assay: Flow cytometric cell cycle analysis; settings: 48 h to 72 h, flow cytometry
Procedure: Cells were seeded in 6-well plates and treated with DMSO or indicated compounds at various concentrations for the indicated times. After treatment, the cells were harvested by trypsinization, washed with PBS, and the pellets were fixed in ice-cold 70% ethanol at -20°C overnight. After centrifugation, the cells were incubated for 15 minutes at room temperature in 0.1 mL of phosphate-citric acid buffer (0.2 M NaHPO4, 0.1 M citric acid, and pH 7.8) and then stained with propidium iodide staining buffer containing Triton X-100 (0.1%, v/v), RNase A (100 μg/mL), and propidium iodide (80 μg/mL) for 30 minutes in the dark. DNA contents were analyzed by flow cytometry with CellQuest software (Becton Dickinson, Mountain View, CA, USA). The results were obtained from three independent experiments and the representative data were shown in Supplementary Figure S8 and S9.

Structure (SMILES) | Viability (% of control cells) RT-112 (5 μM) (RT-112 cells [1]) | Viability (% of control cells) RT-112 (10 μM) (RT-112 cells [1]) | Viability (% of control cells) PLC5/PRF/5 (5 μM) (PLC/PRF/5 cells) | Viability (% of control cells) Hep3B (5 μM) (Hep3B cells) | Viability (% of control cells) SNU-16 (5 μM) (SNU-16 cells) | accumulation of the sub-G1 phase (apoptotic cell death) (RT-112 cells [2])
CCN1CCN(c2ccc(-c3cc(N(C)C(=O)Nc4c(Cl)c(OC)c(Cl)c(OC)c4Cl)ncn3)cc2)CC1 [MPT0L182] | 95.6 % of control cells | 8.6 % of control cells | 78.3 % of control cells | 96.3 % of control cells | 63.2 % of control cells | –
COc1c(Cl)c(NC(=O)N(C)c2cc(-c3cccc([N+](=O)[O-])c3)ncn2)c(Cl)c(OC)c1Cl [MPT0L151] | – | 63.8 % of control cells | – | – | – | –
CC(=O)O[C@H]1C(=O)[C@@]2(C)[C@H]([C@H](OC(=O)c3ccccc3)[C@]3(O)C[C@H](OC(=O)[C@H](O)[C@@H](NC(=O)c4ccccc4)c4ccccc4)C(C)=C1C3(C)C)[C@]1(OC(C)=O)CO[C@@H]1C[C@@H]2O [paclitaxel] | – | – | – | – | – | induced pronounced apoptosis
CCN1CCN(c2ccc(Nc3cc(N(C)C(=O)Nc4c(Cl)c(OC)c(Cl)c(OC)c4Cl)ncn3)cc2)CC1 [MPT0L090] | 52.6 % of control cells | 12.7 % of control cells | 72.6 % of control cells | 47.1 % of control cells | 27.5 % of control cells | –
COc1c(Cl)c(NC(=O)N(C)c2cc(-c3ccco3)ncn2)c(Cl)c(OC)c1Cl [MPT0L154] | – | 76.1 % of control cells | – | – | – | –
COc1c(Cl)c(NC(=O)N(C)c2cc(-c3ccc(C#N)cc3)ncn2)c(Cl)c(OC)c1Cl [MPT0L152] | – | 55.3 % of control cells | – | – | – | –
COc1c(Cl)c(NC(=O)N(C)c2cc(-c3ccc(F)cc3)ncn2)c(Cl)c(OC)c1Cl [MPT0L155] | 92.6 % of control cells | 44.4 % of control cells | 55.3 % of control cells | 72.8 % of control cells | 80.5 % of control cells | –
